Results from ChEMBL document CHEMBL3351515, “α-Hexylcinnamaldehyde inhibits the genotoxicity of environmental pollutants in the bacterial reverse mutation assay” (2014).

Experiments:
[1] = system: Salmonella typhimurium; test: Antimutagenic activity against 1-nitropyrene-induced revertant colonies in Salmonella typhimurium TA98 assessed as inhibition of mutagenicity measured at 9 to 18 uM; format: functional, Salmonella enterica subsp. enterica serovar Typhimurium
[2] = system: Escherichia coli; test: Antimutagenic activity against methyl methansulfonate-induced revertant colonies in Escherichia coli WP2uvrA assessed as number of revertant colonies measured post-treatment at 9 uM (reference value: 726.7 +/- 12.7) in absence of mammalian S9 fraction; format: functional
[3] = system: Escherichia coli; test: Antimutagenic activity against 2-aminoanthracene-induced revertant colonies in Escherichia coli WP2uvrA assessed as number of revertant colonies measured cotreatment at 90 uM (reference value: 366 +/- 10.3) in presence of mammalian S9 fraction; format: functional
[4] = system: Salmonella typhimurium; test: Antimutagenic activity against 2-aminoanthracene-induced revertant colonies in Salmonella typhimurium TA100 assessed as number of revertant colonies measured post-treatment at 180 uM (reference value: 642.7 +/- 2.7) in presence of mammalian S9 fraction; format: functional, Salmonella enterica subsp. enterica serovar Typhimurium
[5] = system: Salmonella typhimurium; test: Antimutagenic activity against 2-nitrofluorene-induced revertant colonies in Salmonella typhimurium TA98 assessed as inhibition of mutagenicity measured at 90 to 180 uM; format: functional, Salmonella enterica subsp. enterica serovar Typhimurium
[6] = system: Salmonella typhimurium; test: Antimutagenic activity against 2-aminoanthracene-induced revertant colonies in Salmonella typhimurium TA100 assessed as number of revertant colonies measured pretreatment at 18 uM (reference value: 481.3 +/- 5.3) in presence of mammalian S9 fraction; format: functional, Salmonella enterica subsp. enterica serovar Typhimurium
[7] = system: Salmonella typhimurium; test: Antimutagenic activity against 1,8-dinitropyrene-induced revertant colonies in Salmonella typhimurium TA98 assessed as inhibition of mutagenicity measured at 900 uM; format: functional, Salmonella enterica subsp. enterica serovar Typhimurium; details: Salmonella enterica
[8] = system: Escherichia coli; test: Antimutagenic activity against 2-aminoanthracene-induced revertant colonies in Escherichia coli WP2uvrA assessed as number of revertant colonies measured cotreatment at 180 uM (reference value: 366 +/- 10.3) in presence of mammalian S9 fraction; format: functional
[9] = system: Escherichia coli; test: Antimutagenic activity against 2-aminoanthracene-induced revertant colonies in Escherichia coli WP2uvrA assessed as number of revertant colonies measured pretreatment at 90 uM (reference value: 178.7 +/- 11.8) in presence of mammalian S9 fraction; format: functional
[10] = system: Salmonella typhimurium; test: Antimutagenic activity against 1,8-dinitropyrene-induced revertant colonies in Salmonella typhimurium TA98 assessed as inhibition of mutagenicity measured at 90 to 180 uM; format: functional, Salmonella enterica subsp. enterica serovar Typhimurium
[11] = system: Escherichia coli; test: Antimutagenic activity against 2-aminoanthracene-induced revertant colonies in Escherichia coli WP2uvrA assessed as number of revertant colonies measured post-treatment at 90 uM (reference value: 308 +/- 4) in presence of mammalian S9 fraction; format: functional
[12] = system: Salmonella typhimurium; test: Antimutagenic activity against 1-nitropyrene-induced revertant colonies in Salmonella typhimurium TA98 1,8 DNP assessed as inhibition of mutagenicity measured at 9 to 18 uM; format: functional, Salmonella enterica subsp. enterica serovar Typhimurium
[13] = system: Salmonella typhimurium; test: Antimutagenic activity against 2-aminoanthracene-induced revertant colonies in Salmonella typhimurium TA100 assessed as number of revertant colonies measured post-treatment at 9 uM (reference value: 642.7 +/- 2.7) in presence of mammalian S9 fraction; format: functional, Salmonella enterica subsp. enterica serovar Typhimurium
[14] = system: Escherichia coli; test: Antimutagenic activity against methyl methansulfonate-induced revertant colonies in Escherichia coli WP2uvrA assessed as number of revertant colonies measured post-treatment at 90 uM (reference value: 726.7 +/- 12.7) in absence of mammalian S9 fraction; format: functional
[15] = system: Salmonella typhimurium; test: Antimutagenic activity against 1-nitropyrene-induced revertant colonies in Salmonella typhimurium TA98 assessed as inhibition of mutagenicity measured at 90 to 180 uM; format: functional, Salmonella enterica subsp. enterica serovar Typhimurium
[16] = system: Escherichia coli; test: Antimutagenic activity against 2-aminoanthracene-induced revertant colonies in Escherichia coli WP2uvrA assessed as number of revertant colonies measured post-treatment at 18 uM (reference value: 308 +/- 4) in presence of mammalian S9 fraction; format: functional
[17] = system: Salmonella typhimurium; test: Antimutagenic activity against 4-nitroquinoline N-oxide-induced revertant colonies in Salmonella typhimurium TA98 assessed as inhibition of mutagenicity measured at 90 to 180 uM; format: functional, Salmonella enterica subsp. enterica serovar Typhimurium
[18] = system: Escherichia coli; test: Antimutagenic activity against 2-aminoanthracene-induced revertant colonies in Escherichia coli WP2uvrA assessed as number of revertant colonies measured cotreatment at 900 uM (reference value: 366 +/- 10.3) in presence of mammalian S9 fraction; format: functional
[19] = system: Salmonella typhimurium; test: Antimutagenic activity against sodium azide-induced revertant colonies in Salmonella typhimurium TA100 assessed as number of revertant colonies measured pretreatment at 9 uM (reference value: 1968 +/- 46.9) in absence of mammalian S9 fraction; format: functional, Salmonella enterica subsp. enterica serovar Typhimurium
[20] = system: Salmonella typhimurium; test: Antimutagenic activity against 2-aminoanthracene-induced revertant colonies in Salmonella typhimurium TA100 assessed as number of revertant colonies measured post-treatment at 18 uM (reference value: 642.7 +/- 2.7) in presence of mammalian S9 fraction; format: functional, Salmonella enterica subsp. enterica serovar Typhimurium
[21] = system: Salmonella typhimurium; test: Antimutagenic activity against 1,8-dinitropyrene-induced revertant colonies in Salmonella typhimurium TA98 assessed as inhibition of mutagenicity measured at 9 to 18 uM; format: functional, Salmonella enterica subsp. enterica serovar Typhimurium
[22] = system: Salmonella typhimurium; test: Antimutagenic activity against sodium azide-induced revertant colonies in Salmonella typhimurium TA100 assessed as number of revertant colonies measured pretreatment at 900 uM (reference value: 1968 +/- 46.9) in absence of mammalian S9 fraction; format: functional, Salmonella enterica subsp. enterica serovar Typhimurium
[23] = system: Escherichia coli; test: Antimutagenic activity against methyl methansulfonate-induced revertant colonies in Escherichia coli WP2uvrA assessed as number of revertant colonies measured pretreatment at 900 uM (reference value: 466.7 +/- 40.4) in absence of mammalian S9 fraction; format: functional
[24] = system: Escherichia coli; test: Antimutagenic activity against 2-aminoanthracene-induced revertant colonies in Escherichia coli WP2uvrA assessed as number of revertant colonies measured pretreatment at 18 uM (reference value: 178.7 +/- 11.8) in presence of mammalian S9 fraction; format: functional
[25] = system: Salmonella typhimurium; test: Antimutagenic activity against 1-nitropyrene-induced revertant colonies in Salmonella typhimurium TA98 1,8 DNP assessed as inhibition of mutagenicity measured at 90 to 180 uM; format: functional, Salmonella enterica subsp. enterica serovar Typhimurium
[26] = system: Escherichia coli; test: Antimutagenic activity against 2-aminoanthracene-induced revertant colonies in Escherichia coli WP2uvrA assessed as number of revertant colonies measured cotreatment at 9 uM (reference value: 366 +/- 10.3) in presence of mammalian S9 fraction; format: functional
[27] = system: Salmonella typhimurium; test: Antimutagenic activity against 2-aminoanthracene-induced revertant colonies in Salmonella typhimurium TA100 assessed as number of revertant colonies measured post-treatment at 90 uM (reference value: 642.7 +/- 2.7) in presence of mammalian S9 fraction; format: functional, Salmonella enterica subsp. enterica serovar Typhimurium
[28] = system: Salmonella typhimurium; test: Antimutagenic activity against 2-aminoanthracene-induced revertant colonies in Salmonella typhimurium TA100 assessed as number of revertant colonies measured cotreatment at 18 uM (reference value: 457.9 +/- 16.74) in presence of mammalian S9 fraction; format: functional, Salmonella enterica subsp. enterica serovar Typhimurium
[29] = system: Salmonella typhimurium; test: Antimutagenic activity against 1-nitropyrene-induced revertant colonies in Salmonella typhimurium TA98 assessed as inhibition of mutagenicity measured at 900 uM; format: functional, Salmonella enterica subsp. enterica serovar Typhimurium; details: Salmonella enterica
[30] = system: Escherichia coli; test: Antimutagenic activity against methyl methansulfonate-induced revertant colonies in Escherichia coli WP2uvrA assessed as number of revertant colonies measured post-treatment at 180 uM (reference value: 726.7 +/- 12.7) in absence of mammalian S9 fraction; format: functional
[31] = system: Salmonella typhimurium; test: Antimutagenic activity against sodium azide-induced revertant colonies in Salmonella typhimurium TA100 assessed as number of revertant colonies measured post-treatment at 180 uM (reference value: 1909 +/- 29.7) in absence of mammalian S9 fraction; format: functional, Salmonella enterica subsp. enterica serovar Typhimurium

## CCCCCC/C(C=O)=C\c1ccccc1
[1]
  inhibition (INH): <25%
[2]
  Activity: 528
[3]
  Activity: 334.3
[4]
  Activity: 520
[5]
  inhibition (INH): 25%
[6]
  Activity: 453.3
[7]
  inhibition at 900 µM: > 40%
[8]
  Activity: 318.7
[9]
  Activity: 152.3
[10]
  inhibition (INH): 25%
[11]
  Activity: 308.7
[12]
  inhibition (INH): <25%
[13]
  Activity: 637.3
[14]
  Activity: 517.3
[15]
  inhibition (INH): 25%
[16]
  Activity: 292
[17]
  inhibition (INH): 25%
[18]
  Activity: 293.5
[19]
  Activity: 1877
[20]
  Activity: 530.7
[21]
  inhibition (INH): <25%
[22]
  Activity: 1652
[23]
  Activity: 365.3
[24]
  Activity: 166.7
[25]
  inhibition (INH): 25%
[26]
  Activity: 336.8
[27]
  Activity: 530
[28]
  Activity: 446
[29]
  inhibition at 900 µM: > 40%
[30]
  Activity: 488
[31]
  Activity: 1771
